In assay [1] the test system is P. carinii. Kind of assay: Protection against P. carinii infection in anti-CD4 treated (immunocompromised) mice, lung impression smear score. It counts as in vivo. More on the design: GIEMSA score for presence of P. carinii / SILVER score for presence of P. carinii: scale not given here. The procedure: Mice were pretreated with L3T4 anti-CD4 antibody for a minimum of 2 weeks (2 injections/week, 0.2 mg/injection) or until the peripheral CD4 count was reduced by at least about 50%.
An aqueous formulation was prepared containing 1 mg/ml 3-O-deacylated monophosphoryl lipid A and 108 μg/ml of the surfactant DPPC in water. The formulation was administered intratracheally via a small cannula at −24 hours and then twice a week for the remainder of the study. The concentrations administered are indicated below in Table 1. One million P. carinii were inoculated trans-tracheally at day 0. Twice-weekly treatments were continued for 7 weeks, lungs were removed and impression smears made. Slides were stained with Giemsa and silver and scored for the presence of P. carinni as follows.

Assay [2] deals with C3H/HEJ splenocytes. Kind of assay: Cytokine induction in C3H/HEJ (toll-receptor 4 mutant) mouse splenic cultures. The class given is cell-based. The protocol:
Lipid A compounds were tested by reconstitution in 0.2% triethanolamine in sterile water for irrigation, incubated at 56° C. and sonicated for 2×10 minutes at 37° C. LPS 055B5 (Sigma-Aldrich; St Louis, Mo.) was diluted into PBS.
BALB/c, DBA/2 and C3H/HEJ mice were purchased from The Jackson Laboratory (Bar Harbor, Me.). Spleens were taken from the mice between 2 PM and 3 PM, and separate single cell suspensions were obtained for each mouse strain. Red blood cells were lysed using Tris-ammonium chloride solution (Sigma-Aldrich), cells were washed and counted using Trypan Blue (Sigma-Aldrich) exclusion. One million splenocytes were cultured per well in 1.0 mL of culture medium. Splenic culture medium (SCM) was designed for 5 day or longer cultures of mouse splenocytes and consisted of RPMI 1640 (Sigma-Aldrich) supplemented to 5% with fetal bovine serum (HyClone; Logan, Utah), 100 ug/mL Gentamicin (Sigma-Aldrich), 250 ng/mL amphothericin (InVitrogen Life Technologies; Carlsbad, Calif.), 1×ITS (bovine insulin 500 ng/mL, human transferring 500 ng/mLg, sodium selenite 250 ng/mL, Sigma), beta-mercaptoethanol 43 nM (Sigma-Aldrich) purivic acid 1 mM (Sigma-Aldrich), HEPES 10 mM (Sigma-Aldrich). Data from these experiments is presented herein as FIG. 8.
BALB/c responses and C3H/HEJ responses were compared for MPL and RC552. […]

Assay [3] relates to human macrophage. Kind of assay: Microarray of RNA from stimulated human macrophage. The class given is cell-based.
The test system of assay [4] is human whole blood. The class given is cell-based.
The mark [5] stands for this setting: 25 MG/KG intratracheally at -24 hours then twice a week, 7 weeks, Table 1.
Setting [6] is: 100 MG/KG intratracheally, 7 weeks, Table 1.
[7] abbreviates: 250 MG/KG intratracheally, 7 weeks, Table 1.

On to “3-O-deacylated monophosphoryl lipid A [MPL]”, for which the “GIEMSA score for presence of P. carinii” value in assay [1] (setting [5]) amounted to 3.4 ± 0.5; in assay [1] (setting [6]), 2.7 ± 0.5; in assay [1] (100 MG/KG, repeated study, Table 2), 1.3 ± 0.3; in assay [1] (200 MG/KG, repeated study, Table 2) it was 1.0 ± 0.3; in assay [1] (setting [7]) it was 1.8 ± 0.8. For the same substance, the entries for the “SILVER score for presence of P. carinii” value in assay [1] (setting [5]), in assay [1] (setting [6]) and in assay [1] (setting [7]) were 3.3 ± 0.1, 3.2 ± 0.1 and 1.6 ± 0.2, respectively. Besides, the “nonspecific resistance to infection by Pneumocystis carinii” value in assay [1] (pulmonary delivery, immunocompromised mice) is on record as “promotes nonspecific resistance to infection by Pneumocystis carinii”. The cytokine response entry in assay [2] is listed as “Neither MPL nor RC552 induced a cytokine response”. Also, the “early TNF alpha RNA” value in assay [3] (1 hour) is listed as “early (1 hour) TNF alpha RNA for both compounds”. Besides, the “6 hour TNF alpha RNA” value in assay [3] (6 hour) was “measurable 6 hour RNA”. For the same substance, in assay [4] (donor 1), the “IL-1β cba2” value is 1213. Also, the IL10/TNFα cba in assay [4] (donor 2, ratio of IL-10 to TNF) is reported as 1. Also, the TNFα/IL10 cba in assay [4] (donor 2, ratio of TNF to IL-10) turned out to be 1.

Source of the values: patent publication US8318697B2, “Prophylactic and therapeutic treatment of infectious and other diseases with mono- and disaccharide-based compounds” (Corixa Corporation, priority 2000, dated 2012).
